Assay results reported in ChEMBL document CHEMBL4145521, “Regioselective synthesis of 3,4-diaryl-5-unsubstituted isoxazoles, analogues of natural cytostatic combretastatin A4” (Eur J Med Chem, 2018).

How the values were obtained:
Assay type in all cases: functional
NCI-H460 = test: Cytotoxicity against human NCI-H460 cells incubated for 48 hrs by sulforhodamine B assay; conditions: NCI-H460, 48 h
CAKI-1 = test: Cytotoxicity against human Caki1 cells assessed as cell growth at 10 uM incubated for 48 hrs by sulforhodamine B assay relative to control; conditions: CAKI-1, 48 h, read-out: Activity
KM12 = test: Cytotoxicity against human KM12 cells incubated for 48 hrs by sulforhodamine B assay; conditions: KM12, 48 h
UO-31 = test: Cytotoxicity against human UO31 cells assessed as cell growth at 100 uM incubated for 48 hrs by sulforhodamine B assay relative to control; conditions: UO-31, 48 h, read-out: Activity
SF-295 [1] = test: Cytotoxicity against human SF295 cells assessed as cell growth at 10 uM incubated for 48 hrs by sulforhodamine B assay relative to control; conditions: SF-295, 48 h, read-out: Activity
BT-549 = test: Cytotoxicity against human BT549 cells assessed as cell growth at 0.01 uM incubated for 48 hrs by sulforhodamine B assay relative to control; conditions: BT-549, 48 h, read-out: Activity
OVCAR-3 = test: Cytotoxicity against human OVCAR3 cells incubated for 48 hrs by sulforhodamine B assay; conditions: OVCAR-3, 48 h
SK-MEL-5 = test: Cytotoxicity against human SK-MEL-5 cells assessed as cell growth at 0.1 uM incubated for 48 hrs by sulforhodamine B assay relative to control; conditions: SK-MEL-5, 48 h, read-out: Activity
M14 [2] = test: Cytotoxicity against human M14 cells assessed as cell growth at 1 uM incubated for 48 hrs by sulforhodamine B assay relative to control; conditions: M14, 48 h, read-out: Activity
SK-MEL-28 = test: Cytotoxicity against human SK-MEL-28 cells assessed as cell growth at 0.01 uM incubated for 48 hrs by sulforhodamine B assay relative to control; conditions: SK-MEL-28, 48 h, read-out: Activity
U-251 = test: Cytotoxicity against human U251 cells assessed as cell growth at 0.1 uM incubated for 48 hrs by sulforhodamine B assay relative to control; conditions: U-251, 48 h, read-out: Activity
OVCAR-5 = test: Cytotoxicity against human OVCAR5 cells assessed as cell growth at 0.01 uM incubated for 48 hrs by sulforhodamine B assay relative to control; conditions: OVCAR-5, 48 h, read-out: Activity
UACC-62 = test: Cytotoxicity against human UACC62 cells assessed as cell growth at 0.01 uM incubated for 48 hrs by sulforhodamine B assay relative to control; conditions: UACC-62, 48 h, read-out: Activity
SF-295 [3] = test: Cytotoxicity against human SF295 cells assessed as cell growth at 1 uM incubated for 48 hrs by sulforhodamine B assay relative to control; conditions: SF-295, 48 h, read-out: Activity
EKVX = test: Cytotoxicity against human EKVX cells assessed as cell growth at 0.01 uM incubated for 48 hrs by sulforhodamine B assay relative to control; conditions: read-out: Activity
TK-10 = test: Cytotoxicity against human TK10 cells assessed as cell growth at 0.01 uM incubated for 48 hrs by sulforhodamine B assay relative to control; conditions: TK-10, 48 h, read-out: Activity
PC-3 = test: Cytotoxicity against human PC3 cells assessed as cell growth at 100 uM incubated for 48 hrs by sulforhodamine B assay relative to control; conditions: PC-3, 48 h, read-out: Activity
MDA-MB-435 [4] = test: Cytotoxicity against human MDA-MB-435 cells assessed as cell growth at 1 uM incubated for 48 hrs by sulforhodamine B assay relative to control; conditions: MDA-MB-435, 48 h, read-out: Activity
OVCAR-8 = test: Cytotoxicity against human OVCAR8 cells assessed as cell growth at 10 uM incubated for 48 hrs by sulforhodamine B assay relative to control; conditions: OVCAR-8, 48 h, read-out: Activity
HOP-92 = test: Cytotoxicity against human HOP92 cells assessed as cell growth at 0.1 uM incubated for 48 hrs by sulforhodamine B assay relative to control; conditions: HOP-92, 48 h, read-out: Activity
LOX IMVI = test: Cytotoxicity against human LOXIMVI cells assessed as cell growth at 0.01 uM incubated for 48 hrs by sulforhodamine B assay relative to control; conditions: read-out: Activity
Malme-3M = test: Cytotoxicity against human MALME-3M cells assessed as cell growth at 0.01 uM incubated for 48 hrs by sulforhodamine B assay relative to control; conditions: read-out: Activity
MDA-MB-468 = test: Cytotoxicity against human MDA-MB-468 cells assessed as cell growth at 0.01 uM incubated for 48 hrs by sulforhodamine B assay relative to control; conditions: MDA-MB-468, 48 h, read-out: Activity
M14 [5] = test: Cytotoxicity against human M14 cells incubated for 48 hrs by sulforhodamine B assay; conditions: M14, 48 h
IGROV-1 = test: Cytotoxicity against human IGROV1 cells assessed as cell growth at 100 uM incubated for 48 hrs by sulforhodamine B assay relative to control; conditions: IGROV-1, 48 h, read-out: Activity
NCI-H322M [6] = test: Cytotoxicity against human NCI-H322M cells assessed as cell growth at 1 uM incubated for 48 hrs by sulforhodamine B assay relative to control; conditions: read-out: Activity
K562 = test: Cytotoxicity against human K562 cells assessed as cell growth at 0.1 uM incubated for 48 hrs by sulforhodamine B assay relative to control; conditions: K562, 48 h, read-out: Activity
RPMI-8226 = test: Cytotoxicity against human RPMI8226 cells assessed as cell growth at 0.01 uM incubated for 48 hrs by sulforhodamine B assay relative to control; conditions: RPMI-8226, 48 h, read-out: Activity
NCI-H322M [7] = test: Cytotoxicity against human NCI-H322M cells incubated for 48 hrs by sulforhodamine B assay
HT-29 = test: Cytotoxicity against human HT-29 cells assessed as cell growth at 0.01 uM incubated for 48 hrs by sulforhodamine B assay relative to control; conditions: HT-29, 48 h, read-out: Activity
MDA-MB-435 [8] = test: Cytotoxicity against human MDA-MB-435 cells assessed as cell growth at 100 uM incubated for 48 hrs by sulforhodamine B assay relative to control; conditions: MDA-MB-435, 48 h, read-out: Activity
[9] = read-out: LC50 (the source's name)
[10] = read-out: pLC50 (the source's name) (converted)

COc1ccc(-c2nocc2-c2cc(OC)c(OC)c(OC)c2)cc1
GI50 (NCI-H460; read-out: GI50): 0.0536 µM | CC50 (NCI-H460; [9]): > 100 µM | TGI (NCI-H460; read-out: TGI): 12.7 µM | GI50 (NCI-H460; read-out: pGI50 (converted)): 0.0537 µM | CC50 (NCI-H460; [10]): > 100 µM | TGI (NCI-H460; read-out: pTGI (converted)): 12.6 µM | growth at 10 µM (CAKI-1): 36% | GI50 (KM12; read-out: GI50): 0.0433 µM | CC50 (KM12; [9]): > 100 µM | TGI (KM12; read-out: TGI): 13.1 µM | GI50 (KM12; read-out: pGI50 (converted)): 0.0437 µM | CC50 (KM12; [10]): > 100 µM | TGI (KM12; read-out: pTGI (converted)): 13.2 µM | growth at 100 µM (UO-31): -27% | growth at 10 µM (SF-295 [1]): 5% | growth at 0.01 µM (BT-549): 86% | GI50 (OVCAR-3; read-out: GI50): 0.0386 µM | LC50 (50% lethal concentration) (OVCAR-3; read-out: LC50): > 100 µM | TGI (OVCAR-3; read-out: TGI): 1.32 µM | GI50 (OVCAR-3; read-out: pGI50 (converted)): 0.0389 µM | LC50 (50% lethal concentration) (OVCAR-3; read-out: pLC50 (converted)): > 100 µM | TGI (OVCAR-3; read-out: pTGI (converted)): 1.32 µM | growth at 0.1 µM (SK-MEL-5): 41% | growth at 1 µM (M14 [2]): 12% | growth at 0.01 µM (SK-MEL-28): 94% | growth at 0.1 µM (U-251): 48% | growth at 0.01 µM (OVCAR-5): 89% | growth at 0.01 µM (UACC-62): 90% | growth at 1 µM (SF-295 [3]): 7% | growth at 0.01 µM (EKVX): 83% | growth at 0.01 µM (TK-10): 90% | growth at 100 µM (PC-3): -13% | growth at 1 µM (MDA-MB-435 [4]): -25% | growth at 10 µM (OVCAR-8): 25% | growth at 0.1 µM (HOP-92): 72% | growth at 0.01 µM (LOX IMVI): 94% | growth at 0.01 µM (Malme-3M): 86% | growth at 0.01 µM (MDA-MB-468): 94% | GI50 (M14 [5]; read-out: GI50): 0.0668 µM | CC50 (M14 [5]; [9]): > 100 µM | TGI (M14 [5]; read-out: TGI): 53.9 µM | GI50 (M14 [5]; read-out: pGI50 (converted)): 0.0661 µM | CC50 (M14 [5]; [10]): > 100 µM | TGI (M14 [5]; read-out: pTGI (converted)): 53.7 µM | growth at 100 µM (IGROV-1): 2% | growth at 1 µM (NCI-H322M [6]): 46% | growth at 0.1 µM (K562): 24% | growth at 0.01 µM (RPMI-8226): 100% | GI50 (NCI-H322M [7]; read-out: GI50): 0.737 µM | LC50 (NCI-H322M [7]; read-out: LC50): > 100 µM | TGI (NCI-H322M [7]; read-out: TGI): > 100 µM | GI50 (NCI-H322M [7]; read-out: pGI50 (converted)): 0.741 µM | LC50 (NCI-H322M [7]; read-out: pLC50 (converted)): > 100 µM | TGI (NCI-H322M [7]; read-out: pTGI): > 100 µM | growth at 0.01 µM (HT-29): 98% | growth at 100 µM (MDA-MB-435 [8]): -9%
